Experimental data taken from PubChem BioAssay (NCI).
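All cell lines were grown in 96-well plates and treated with compound for 48 hours. TGI is the concentration that stops growth completely.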

What was measured:
Assay in all cases: NCI anticancer screen, dose series, 48 h
HT29 colon = tested on: HT29 colon
786-0 renal = tested on: 786-0 renal
HOP-92 NSCLC = tested on: HOP-92 NSCLC
A549 NSCLC = tested on: A549 NSCLC
SK-MEL-5 melanoma = tested on: SK-MEL-5 melanoma
TK-10 renal = tested on: TK-10 renal
NCI-H460 lung = tested on: NCI-H460 lung
NCI-H226 lung = tested on: NCI-H226 lung
SW-620 colon = tested on: SW-620 colon
MALME-3M melanoma = tested on: MALME-3M melanoma
RPMI-8226 leukemia = tested on: RPMI-8226 leukemia
SK-OV-3 ovarian = tested on: SK-OV-3 ovarian
A498 renal = tested on: A498 renal
SK-MEL-28 melanoma = tested on: SK-MEL-28 melanoma
MDA-N = tested on: MDA-N
NCI-H522 lung = tested on: NCI-H522 lung
HOP-62 NSCLC = tested on: HOP-62 NSCLC
SN12C renal = tested on: SN12C renal
CAKI-1 renal = tested on: CAKI-1 renal
U251 CNS = tested on: U251 CNS
DU-145 prostate = tested on: DU-145 prostate
COLO 205 colon = tested on: COLO 205 colon
HCT-116 colon = tested on: HCT-116 colon
SNB-75 CNS = tested on: SNB-75 CNS
SF-539 CNS = tested on: SF-539 CNS
OVCAR-4 ovarian = tested on: OVCAR-4 ovarian
NCI-H23 lung = tested on: NCI-H23 lung
OVCAR-5 ovarian = tested on: OVCAR-5 ovarian
HCC-2998 colon = tested on: HCC-2998 colon
HCT-15 colon = tested on: HCT-15 colon
SF-295 CNS = tested on: SF-295 CNS
SF-268 CNS = tested on: SF-268 CNS
NCI/ADR-RES ovarian = tested on: NCI/ADR-RES ovarian
LOX IMVI melanoma = tested on: LOX IMVI melanoma
MDA-MB-231 breast = tested on: MDA-MB-231 breast
OVCAR-3 ovarian = tested on: OVCAR-3 ovarian
SR leukemia = tested on: SR leukemia
M14 melanoma = tested on: M14 melanoma
RXF 393 renal = tested on: RXF 393 renal
HL-60(TB) leukemia = tested on: HL-60(TB) leukemia
UACC-257 melanoma = tested on: UACC-257 melanoma
MDA-MB-435 = tested on: MDA-MB-435
OVCAR-8 ovarian = tested on: OVCAR-8 ovarian
UACC-62 melanoma = tested on: UACC-62 melanoma
CCRF-CEM leukemia = tested on: CCRF-CEM leukemia
K-562 leukemia = tested on: K-562 leukemia
PC-3 prostate = tested on: PC-3 prostate
IGROV1 ovarian = tested on: IGROV1 ovarian
SNB-19 CNS = tested on: SNB-19 CNS
MCF7 breast = tested on: MCF7 breast
T-47D breast = tested on: T-47D breast
ACHN renal = tested on: ACHN renal
KM12 colon = tested on: KM12 colon
EKVX NSCLC = tested on: EKVX NSCLC
HS 578T breast = tested on: HS 578T breast
MOLT-4 leukemia = tested on: MOLT-4 leukemia
SK-MEL-2 melanoma = tested on: SK-MEL-2 melanoma
UO-31 renal = tested on: UO-31 renal
BT-549 breast = tested on: BT-549 breast

N#Cc1sc2c(c1OC(=O)c1ccc(Cl)cc1)c(=O)n(-c1ccccc1)c(=S)n2-c1ccccc1
TGI (HT29 colon): 76.3 µM | TGI (786-0 renal): 63.6 µM | TGI (HOP-92 NSCLC): 66.7 µM | TGI (A549 NSCLC): > 100 µM | TGI (SK-MEL-5 melanoma): 38.8 µM | TGI (TK-10 renal): 88.7 µM | TGI (NCI-H460 lung): 33.3 µM | TGI (NCI-H226 lung): 86.7 µM | TGI (SW-620 colon): 46.9 µM | TGI (MALME-3M melanoma): 54.4 µM | TGI (RPMI-8226 leukemia): 45.3 µM | TGI (SK-OV-3 ovarian): 91.4 µM | TGI (A498 renal): 57.2 µM | TGI (SK-MEL-28 melanoma): 47.2 µM | TGI (MDA-N): 55.1 µM | TGI (NCI-H522 lung): 5.29 µM | TGI (HOP-62 NSCLC): 82.7 µM | TGI (SN12C renal): 54 µM | TGI (CAKI-1 renal): 60.3 µM | TGI (U251 CNS): 38.6 µM | TGI (DU-145 prostate): > 100 µM | TGI (COLO 205 colon): 38.1 µM | TGI (HCT-116 colon): 44.3 µM | TGI (SNB-75 CNS): > 100 µM | TGI (SF-539 CNS): 44 µM | TGI (OVCAR-4 ovarian): 76.7 µM | TGI (NCI-H23 lung): 65.8 µM | TGI (OVCAR-5 ovarian): 68.2 µM | TGI (HCC-2998 colon): 52.2 µM | TGI (HCT-15 colon): 35.4 µM | TGI (SF-295 CNS): 65.9 µM | TGI (SF-268 CNS): 97.7 µM | TGI (NCI/ADR-RES ovarian): 73.2 µM | TGI (LOX IMVI melanoma): 37.3 µM | TGI (MDA-MB-231 breast): 97 µM | TGI (OVCAR-3 ovarian): 64.2 µM | TGI (SR leukemia): 75.9 µM | TGI (M14 melanoma): 50.8 µM | TGI (RXF 393 renal): 50.7 µM | TGI (HL-60(TB) leukemia): 46.6 µM | TGI (UACC-257 melanoma): > 100 µM | TGI (MDA-MB-435): 52.5 µM | TGI (OVCAR-8 ovarian): 67.1 µM | TGI (UACC-62 melanoma): 35.6 µM | TGI (CCRF-CEM leukemia): 31.2 µM | TGI (K-562 leukemia): > 100 µM | TGI (PC-3 prostate): 80.2 µM | TGI (IGROV1 ovarian): 40.5 µM | TGI (SNB-19 CNS): 61.4 µM | TGI (MCF7 breast): 84.2 µM | TGI (T-47D breast): > 100 µM | TGI (ACHN renal): 86.8 µM | TGI (KM12 colon): 32.5 µM | TGI (EKVX NSCLC): 49.2 µM | TGI (HS 578T breast): 56.2 µM | TGI (MOLT-4 leukemia): 68.7 µM

CC(C)=CC1C(COC(=O)c2ccccc2Cl)C1(C)C (stereo not drawn)
TGI (HT29 colon): > 100 µM | TGI (786-0 renal): > 100 µM | TGI (HOP-92 NSCLC): 86.3 µM | TGI (A549 NSCLC): > 100 µM | TGI (SK-MEL-5 melanoma): 65.3 µM | TGI (TK-10 renal): > 100 µM | TGI (NCI-H460 lung): > 100 µM | TGI (NCI-H226 lung): 82.2 µM | TGI (SW-620 colon): > 100 µM | TGI (MALME-3M melanoma): 70.3 µM | TGI (A498 renal): > 100 µM | TGI (SK-MEL-28 melanoma): > 100 µM | TGI (SK-MEL-2 melanoma): > 100 µM | TGI (MDA-N): > 100 µM | TGI (NCI-H522 lung): 49.5 µM | TGI (HOP-62 NSCLC): > 100 µM | TGI (SN12C renal): > 100 µM | TGI (CAKI-1 renal): > 100 µM | TGI (U251 CNS): 90.2 µM | TGI (DU-145 prostate): > 100 µM | TGI (HCT-116 colon): > 100 µM | TGI (OVCAR-4 ovarian): > 100 µM | TGI (NCI-H23 lung): > 100 µM | TGI (OVCAR-5 ovarian): > 100 µM | TGI (HCT-15 colon): 75.4 µM | TGI (SF-295 CNS): > 100 µM | TGI (SF-268 CNS): > 100 µM | TGI (NCI/ADR-RES ovarian): > 100 µM | TGI (LOX IMVI melanoma): 38.9 µM | TGI (MDA-MB-231 breast): > 100 µM | TGI (OVCAR-3 ovarian): 75.8 µM | TGI (SR leukemia): > 100 µM | TGI (M14 melanoma): > 100 µM | TGI (RXF 393 renal): 65.6 µM | TGI (HL-60(TB) leukemia): 67.7 µM | TGI (UACC-257 melanoma): > 100 µM | TGI (MDA-MB-435): > 100 µM | TGI (OVCAR-8 ovarian): > 100 µM | TGI (UACC-62 melanoma): > 100 µM | TGI (CCRF-CEM leukemia): > 100 µM | TGI (K-562 leukemia): > 100 µM | TGI (PC-3 prostate): > 100 µM | TGI (IGROV1 ovarian): 57.6 µM | TGI (SNB-19 CNS): > 100 µM | TGI (UO-31 renal): > 100 µM | TGI (T-47D breast): > 100 µM | TGI (ACHN renal): > 100 µM | TGI (KM12 colon): 99.1 µM | TGI (EKVX NSCLC): 92.6 µM | TGI (BT-549 breast): 95.1 µM | TGI (HS 578T breast): 60.1 µM | TGI (MOLT-4 leukemia): > 100 µM
